{
  "source": "patent US11298318B2",
  "about": "“One-step method for production of ultra-small lipid structures” (FOUNTAIN TECHNOLOGIES INTERNATIONAL, LLC, priority 2015, dated 2022)",
  "assay": "Pharmacokinetics of EGCG after oral gavage to rats",
  "assay_type": "in vivo",
  "conditions": "100 mg/kg",
  "protocol": "Groups of 10 200-g male rats were administered EGCG by oral gavage, in the form of the USLS prepared as in Example 3 (2.1 ml; 100 mg/kg body weight) or as an identical preparation of EGCG without USLS. Blood samples were collected at 5, 10, 30, 60, 120, and 480 minutes post administration. […] Within 5 minutes after oral administration, the USLS-sequestered compound produced a plasma concentration of 600 ng/ml and a peak plasma concentration of 605 ng/ml at 10 minutes post administration. The EGCG administered without sequestration in USLS produced a peak plasma concentration of only 150 ng/ml at 5 minutes post administration.\nThe pharmacokinetic parameters Cmax (maximum serum concentration), Tmax (time maximum serum concentration is reached), AUC (area under the curve), and Relative Bioavailability were determined from the plasma data and are presented in Table 1, below.",
  "data": [
    {"smiles": "O=C(O[C@@H]1Cc2c(O)cc(O)cc2O[C@@H]1c1cc(O)c(O)c(O)c1)c1cc(O)c(O)c(O)c1", "note": "[EGCG control, Epigallocatechin gallate]", "values": [
      {"measurement": "time of peak plasma concentration post administration", "value": 5, "unit": "min"},
      {"measurement": "peak plasma concentration of EGCG", "setting": "FIG. 4", "value": 150, "unit": "ng/mL"},
      {"measurement": "AUC (0-240 min)", "setting": "Table 1", "value": "14,261"},
      {"measurement": "Cmax (maximum serum concentration)", "setting": "Table 1", "value": 116.57},
      {"measurement": "Tmax (time maximum serum concentration is reached)", "setting": "Table 1", "value": 5}
    ]}
  ]
}
